Source: patent US9226499B2, “Protected antimicrobial compounds for high temperature applications” (Dow Global Technologies LLC, priority 2010, dated 2016)

Assays:
[1] = system: T. thermophilus; test: Biocidal efficacy against thermophilic bacteria at 70° C., dilution to extinction; format: cell-based; conditions: equivalent of 100 ppm glutaraldehyde, after 5 days with re-challenging
Protocol: b. Thermophilic Bacteria. A 48-72 hour old culture of T. thermophilus is pelleted by centrifuging at 2000 g and the pellet resuspended in 10 times the culture volume of buffer (PBS or carbonate-buffered synthetic freshwater). The suspension is distributed into 10 mL aliquots in glass screw-cap tubes. Each tube is then treated with glutaraldehyde or an adduct and incubated at 70° C. At indicated timepoints, cell density in each tube is measured via dilution to extinction by serially diluting a sample and plating dilutions on solid media.

[2] = Analysis of glutaraldehyde release after heat-aging; format: physicochemical; conditions: sterile deionized water, molar equivalent of 2000 ppm glutaraldehyde; initial and heat-aged at 55° C. for 2 h or 24 h
Protocol: Samples of the IPHA-adduct are analyzed for glutaraldehyde content. Samples are prepared in sterile deionized water at the molar equivalent of 2000 ppm glutaraldehyde. A standard of 500 ppm glutaraldehyde is also prepared. An initial measurement is taken just after sample preparation. Samples are then heat-aged at 55° C. for 2 h or 24 h and analyzed again. Glutaraldehyde concentration is measured directly via GC and after pre-column derivatization by HPLC.

| Structure (SMILES) | Control of bacterial levels after 5 days [1] | Glutaraldehyde concentration after pre-column derivatization by HPLC [2] | Glutaraldehyde concentration measured directly via GC [2] |
| --- | --- | --- | --- |
| O=CCCCC=O [glutaraldehyde] | fails to control bacterial levels |  |  |
| CC(C)/[N+]([O-])=C/CCC/C=[N+](\[O-])C(C)C [IPHA-adduct, N,N′-(pentane-1,5-diylidene)bis(propan-2-amineoxide)] |  | low levels of glutaraldehyde | No glutaraldehyde is detected |
